± gives the standard deviation of the averaged measurements.
Assay: TIMS collisional cross section (CCS, N2) of the lipid ion; higher = larger ion cross section
Conditions: ionization mode: positive, one isomer drawn
Description: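 Lipid extracts of human plasma (NIST SRM 1950), mouse liver and HeLa cells were separated by nanoflow C18 LC (30 min gradient, 60 °C) and analysed by TIMS-PASEF on a timsTOF Pro in positive ion mode. Ion mobility was calibrated with the Agilent tuning mix and converted to collisional cross sections (Mason–Schamp) in N2 drift gas. Lipids were identified by MS/MS (SimLipid) and manual curation. SMILES are LIPID MAPS representative structures for the annotated lipid.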

With CCCCC/C=C\C/C=C\CCCCCCCC(=O)O[C@@H](CO)COC(=O)CCCCCCCCCCCCC [DG 14:0_18:2_0:0] (ion (formula + adduct): [C35H64O5+NH4] 1+) the “TIMS collisional cross section” value (sample type: Liver) was 252 Å².
In the case of CCCCCCCCCCCCCCCC(=O)OCC(CO)OC(=O)CCCCCCCCCCCCCCC (centres undefined) [DG 16:0_16:0_0:0] (ion (formula + adduct): [C35H68O5+NH4] 1+), the “TIMS collisional cross section” value (sample type: HeLa) is reported as 259 Å², the “TIMS collisional cross section” value (sample type: Liver) is reported as 258.8 Å² and the “TIMS collisional cross section” value (sample type: plasma) is reported as 259 ± 0.42 Å².
With CCCCCCCCCCCCCCCC(=O)OCC(CO)OC(=O)CCCCCCCCCCCCCCC (centres undefined) [DG 16:0_16:0_0:0] (ion (formula + adduct): [C35H68O5+Na] 1+) the “TIMS collisional cross section” value (sample type: plasma) was 253.8 Å².
In the case of CCCCCC/C=C\CCCCCCCC(=O)O[C@@H](CO)COC(=O)CCCCCCCCCCCCCCC [DG 16:0_16:1_0:0] (ion (formula + adduct): [C35H66O5+NH4] 1+), the “TIMS collisional cross section” value (sample type: HeLa) is reported as 254.9 Å², the “TIMS collisional cross section” value (sample type: Liver) is reported as 254.9 Å² and the “TIMS collisional cross section” value (sample type: plasma) is reported as 257 Å².
With CCCCCCCCCCCCCCCCC(=O)O[C@@H](CO)COC(=O)CCCCCCCCCCCCCCC [DG 16:0_17:0_0:0] (ion (formula + adduct): [C36H70O5+NH4] 1+) the “TIMS collisional cross section” value (sample type: HeLa) was 262.1 ± 0.42 Å².
With CCCCC/C=C\C/C=C\CCCCCCCC(=O)O[C@@H](CO)COC(=O)CCCCCCCCCCCCCCC [DG 16:0_18:2_0:0] (ion (formula + adduct): [C37H68O5+NH4] 1+) the “TIMS collisional cross section” value (sample type: Liver) was 259.8 Å².
In the case of CC/C=C\C/C=C\C/C=C\CCCCCCCC(=O)O[C@@H](CO)COC(=O)CCCCCCCCCCCCCCC [DG 16:0_18:3_0:0] (ion (formula + adduct): [C37H66O5+NH4] 1+), the “TIMS collisional cross section” value (sample type: HeLa) is reported as 257.3 Å² and the “TIMS collisional cross section” value (sample type: Liver) is reported as 257.1 Å².
For CCCCC/C=C\C/C=C\C/C=C\CCCCCCC(=O)O[C@@H](CO)COC(=O)CCCCCCCCCCCCCCC [DG 16:0_20:3_0:0] (ion (formula + adduct): [C39H70O5+H] 1+), the “TIMS collisional cross section” value (sample type: Liver) was 265.1 Å².
With CCCCC/C=C\C/C=C\C/C=C\CCCCCCC(=O)O[C@@H](CO)COC(=O)CCCCCCCCCCCCCCC [DG 16:0_20:3_0:0] (ion (formula + adduct): [C39H70O5+NH4] 1+) the “TIMS collisional cross section” value (sample type: HeLa) was 264.8 Å² and the “TIMS collisional cross section” value (sample type: Liver) was 264.9 Å².
With CCCCC/C=C\C/C=C\C/C=C\C/C=C\CCCC(=O)O[C@@H](CO)COC(=O)CCCCCCCCCCCCCCC [DG 16:0_20:4_0:0] (ion (formula + adduct): [C39H68O5+H] 1+) the “TIMS collisional cross section” value (sample type: Liver) was 263.9 Å².
With CCCCC/C=C\C/C=C\C/C=C\C/C=C\CCCC(=O)O[C@@H](CO)COC(=O)CCCCCCCCCCCCCCC [DG 16:0_20:4_0:0] (ion (formula + adduct): [C39H68O5+NH4] 1+) the “TIMS collisional cross section” value (sample type: HeLa) was 263.4 Å², the “TIMS collisional cross section” value (sample type: Liver) was 263.8 Å² and the “TIMS collisional cross section” value (sample type: plasma) was 263.6 Å².
With CC/C=C\C/C=C\C/C=C\C/C=C\C/C=C\CCCC(=O)O[C@@H](CO)COC(=O)CCCCCCCCCCCCCCC [DG 16:0_20:5_0:0] (ion (formula + adduct): [C39H66O5+NH4] 1+) the “TIMS collisional cross section” value (sample type: HeLa) was 261.5 Å².
For CCCCCCCCCCCCCCCCCCCCCC(=O)O[C@@H](CO)COC(=O)CCCCCCCCCCCCCCC [DG 16:0_22:0_0:0] (ion (formula + adduct): [C41H80O5+NH4] 1+), the “TIMS collisional cross section” value (sample type: HeLa) was 279.1 Å².
In the case of CCCCCCCC/C=C\CCCCCCCCCCCC(=O)O[C@@H](CO)COC(=O)CCCCCCCCCCCCCCC [DG 16:0_22:1_0:0] (ion (formula + adduct): [C41H78O5+NH4] 1+), the “TIMS collisional cross section” value (sample type: HeLa) is reported as 276.3 Å².
With CCCCC/C=C\C/C=C\C/C=C\C/C=C\CCCCCC(=O)O[C@@H](CO)COC(=O)CCCCCCCCCCCCCCC [DG 16:0_22:4_0:0] (ion (formula + adduct): [C41H72O5+NH4] 1+) the “TIMS collisional cross section” value (sample type: HeLa) was 271.2 Å² and the “TIMS collisional cross section” value (sample type: Liver) was 270.8 Å².
For CC/C=C\C/C=C\C/C=C\C/C=C\C/C=C\CCCCCC(=O)O[C@@H](CO)COC(=O)CCCCCCCCCCCCCCC [DG 16:0_22:5_0:0] (ion (formula + adduct): [C41H70O5+NH4] 1+), the “TIMS collisional cross section” value (sample type: HeLa) was 266.6 Å² and the “TIMS collisional cross section” value (sample type: Liver) was 270 Å².
In the case of CC/C=C\C/C=C\C/C=C\C/C=C\C/C=C\C/C=C\CCC(=O)O[C@@H](CO)COC(=O)CCCCCCCCCCCCCCC [DG 16:0_22:6_0:0] (ion (formula + adduct): [C41H68O5+NH4] 1+), the “TIMS collisional cross section” value (sample type: Liver) is reported as 267.7 Å².
In the case of CCCCCC/C=C\CCCCCCCC(=O)OC[C@H](CO)OC(=O)CCCCCCC/C=C\CCCCCC [DG 16:1_16:1_0:0] (ion (formula + adduct): [C35H64O5+NH4] 1+), the “TIMS collisional cross section” value (sample type: HeLa) is reported as 249 Å².
In the case of CCCCCC/C=C\CCCCCCCC(=O)OC[C@H](CO)OC(=O)CCCCCCC/C=C\CCCCCCCC [DG 16:1_18:1_0:0] (ion (formula + adduct): [C37H68O5+H] 1+), the “TIMS collisional cross section” value (sample type: HeLa) is reported as 258.1 Å².
